Source: ChEMBL document CHEMBL1201862, “PubChem BioAssay data set” (2004)
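How tested: cells in 96-well plates exposed to compound for 48 hours at five concentrations. GI50 is the concentration that inhibits growth by half.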 Calls of active or inactive are those of the source. No stated cut-off is given here; in the data, active = GI50 up to about 1.1 µM and inactive = higher.

Assays:
Test in all cases: NCI-60 cell line screen, 48 h
SW-620 = test system: SW-620
DU-145 = test system: DU-145
MDA-N = test system: MDA-N
NCI-H522 = test system: NCI-H522
SK-MEL-2 = test system: SK-MEL-2
SK-MEL-5 = test system: SK-MEL-5
U-251 = test system: U-251
UACC-257 = test system: UACC-257
A498 = test system: A498
OVCAR-5 = test system: OVCAR-5
SK-OV-3 = test system: SK-OV-3
786-0 = test system: 786-0
UO-31 = test system: UO-31
NCI-H226 = test system: NCI-H226
MOLT-4 = test system: MOLT-4
Malme-3M = test system: Malme-3M
MDA-MB-231 = test system: MDA-MB-231
IGROV-1 = test system: IGROV-1
SK-MEL-28 = test system: SK-MEL-28
RXF 393 = test system: RXF 393

SMILES	GI50 (SW-620)	GI50 (DU-145)	GI50 (MDA-N)	GI50 (NCI-H522)	GI50 (SK-MEL-2)	GI50 (SK-MEL-5)	GI50 (U-251)	GI50 (UACC-257)	GI50 (A498)	GI50 (OVCAR-5)	GI50 (SK-OV-3)	GI50 (786-0)	GI50 (UO-31)	GI50 (NCI-H226)	GI50 (MOLT-4)	GI50 (Malme-3M)	GI50 (MDA-MB-231)	GI50 (IGROV-1)	GI50 (SK-MEL-28)	GI50 (RXF 393)
CN(C)C(=S)NC(=S)Nc1ccc2ccccc2c1	9.89 µM (inactive)	18.2 µM (inactive)	12.9 µM (inactive)	5.7 µM (inactive)	13.9 µM (inactive)	7.18 µM (inactive)	11.6 µM (inactive)	8.95 µM (inactive)	12.6 µM (inactive)	21.2 µM (inactive)	24.8 µM (inactive)	12.8 µM (inactive)	16.1 µM (inactive)	12.1 µM (inactive)	4.93 µM (inactive)	13.8 µM (inactive)	20 µM (inactive)	14.4 µM (inactive)	14.5 µM (inactive)	18.4 µM (inactive)
C/N=c1\sc2nc(C#N)c(C#N)nc2n1C	18.4 µM (inactive)	36.6 µM (inactive)	22.4 µM (inactive)	15 µM (inactive)	16.5 µM (inactive)	19.1 µM (inactive)	22.4 µM (inactive)	24.2 µM (inactive)	20.5 µM (inactive)	19.2 µM (inactive)	28 µM (inactive)	25.8 µM (inactive)	20.4 µM (inactive)	16.2 µM (inactive)	22.8 µM (inactive)	17.6 µM (inactive)	40.1 µM (inactive)	25.2 µM (inactive)	29.2 µM (inactive)	18.7 µM (inactive)
CC(=O)N1N=C(c2c(O)ccc3ccccc23)CC1c1ccc(Cl)cc1 (stereo not given)	28.4 µM (inactive)	43.8 µM (inactive)	19.5 µM (inactive)	22.9 µM (inactive)	17.5 µM (inactive)	21 µM (inactive)	21.9 µM (inactive)	27.9 µM (inactive)	26.1 µM (inactive)	14.7 µM (inactive)	28.4 µM (inactive)	27.1 µM (inactive)	19.8 µM (inactive)	40 µM (inactive)	10.9 µM (inactive)	17.5 µM (inactive)	19.1 µM (inactive)	12.4 µM (inactive)	27.4 µM (inactive)	17.1 µM (inactive)
COc1cccc2c1C(=O)c1ccc3cc(CCl)cc(O)c3c1C2=O	0.127 µM (active)	0.762 µM (active)	0.231 µM (active)	0.552 µM (active)	0.33 µM (active)	0.364 µM (active)	0.366 µM (active)	0.269 µM (active)	1.19 µM (inactive)	0.157 µM (active)	1.19 µM (inactive)	0.174 µM (active)	0.336 µM (active)	0.869 µM (active)	0.238 µM (active)	0.188 µM (active)	0.205 µM (active)	1.03 µM (active)	0.348 µM (active)	0.244 µM (active)
O=C1C=C(c2ccccc2)OC1C1Sc2ccccc2NC1=O (stereo not given)	9.23 µM (inactive)	12.7 µM (inactive)	4.48 µM (inactive)	6.85 µM (inactive)	8.51 µM (inactive)	9.51 µM (inactive)	4.01 µM (inactive)	7.6 µM (inactive)	7.89 µM (inactive)	13.8 µM (inactive)	8.09 µM (inactive)	5.83 µM (inactive)	7.26 µM (inactive)	14.5 µM (inactive)	10.6 µM (inactive)	24.3 µM (inactive)	10.9 µM (inactive)	11.4 µM (inactive)	9.73 µM (inactive)	14 µM (inactive)
CCOC(=O)/C=C(/C(=O)OCC)n1ccc(=O)n(Cc2cnnn2COCCOC(C)=O)c1=O	3.98 µM (inactive)	20.7 µM (inactive)	23.2 µM (inactive)	1.95 µM (inactive)	19.9 µM (inactive)	19.1 µM (inactive)	17.9 µM (inactive)	16.8 µM (inactive)	24 µM (inactive)	18.2 µM (inactive)	> 100 µM (inactive)	10 µM (inactive)	16 µM (inactive)	24.3 µM (inactive)	4.51 µM (inactive)	12.5 µM (inactive)	18.6 µM (inactive)	17.9 µM (inactive)	16.3 µM (inactive)	15.4 µM (inactive)
COc1ccc(C(=C2C(=O)OC(=O)C2=C(C)C)c2ccc(OC)cc2)cc1	> 100 µM (inactive)	> 100 µM (inactive)	> 100 µM (inactive)	23.2 µM (inactive)	53.8 µM (inactive)	> 100 µM (inactive)	33.4 µM (inactive)	> 100 µM (inactive)	> 100 µM (inactive)	79.1 µM (inactive)	> 100 µM (inactive)	> 100 µM (inactive)	> 100 µM (inactive)	> 100 µM (inactive)	57.4 µM (inactive)	92 µM (inactive)	> 100 µM (inactive)	54 µM (inactive)	> 100 µM (inactive)	> 100 µM (inactive)
OC1(C(F)(F)F)OCCN=C1C(F)(F)F (stereo not given)	56.2 µM (inactive)	41.1 µM (inactive)	> 100 µM (inactive)	40.4 µM (inactive)	31.5 µM (inactive)	56.2 µM (inactive)	> 100 µM (inactive)	> 100 µM (inactive)	> 100 µM (inactive)	> 100 µM (inactive)	> 100 µM (inactive)	> 100 µM (inactive)	> 100 µM (inactive)	> 100 µM (inactive)	69.8 µM (inactive)	24.8 µM (inactive)	> 100 µM (inactive)	99.3 µM (inactive)	> 100 µM (inactive)	> 100 µM (inactive)
Cc1cc(N(CCC#N)CCC#N)ccc1/C=C(\NC(=O)/C=C/c1ccccc1)C(=O)Nc1ccc(Cl)cc1	12.3 µM (inactive)	> 100 µM (inactive)	5.01 µM (inactive)	> 26.2 µM (inactive)	> 59.6 µM (inactive)	0.179 µM (active)	> 7.53 µM (inactive)	> 46 µM (inactive)	> 100 µM (inactive)	54.6 µM (inactive)	> 100 µM (inactive)	> 100 µM (inactive)	11 µM (inactive)	> 69 µM (inactive)	38.1 µM (inactive)	14.2 µM (inactive)	> 100 µM (inactive)	7.62 µM (inactive)	> 100 µM (inactive)	> 68.9 µM (inactive)
CC(=O)OCc1ccc2oc(=O)c(C(=O)Oc3ccccc3)cc2c1	32.9 µM (inactive)	> 100 µM (inactive)	> 100 µM (inactive)	> 100 µM (inactive)	> 100 µM (inactive)	> 100 µM (inactive)	> 100 µM (inactive)	> 100 µM (inactive)	> 100 µM (inactive)	> 100 µM (inactive)	> 100 µM (inactive)	20.3 µM (inactive)	35.2 µM (inactive)	> 100 µM (inactive)	> 100 µM (inactive)	> 100 µM (inactive)	27.8 µM (inactive)	> 100 µM (inactive)	86.9 µM (inactive)	44.6 µM (inactive)
NC1CC(=O)c2csc(Br)c21 (stereo not given)	4.84 µM (inactive)	20.7 µM (inactive)	13.6 µM (inactive)	2.05 µM (inactive)	16 µM (inactive)	20.9 µM (inactive)	18.1 µM (inactive)	17.3 µM (inactive)	> 36.5 µM (inactive)	14.4 µM (inactive)	> 64.6 µM (inactive)	12.9 µM (inactive)	16 µM (inactive)	22.9 µM (inactive)	15.1 µM (inactive)	17.2 µM (inactive)	23.9 µM (inactive)	7.76 µM (inactive)	18.5 µM (inactive)	17.2 µM (inactive)
O=C(O)/C=C(/CC(=O)O)C(=O)O	19 µM (inactive)	19.9 µM (inactive)	22.1 µM (inactive)	17.9 µM (inactive)	19.5 µM (inactive)	21 µM (inactive)	19.4 µM (inactive)	33.1 µM (inactive)	16.3 µM (inactive)	38.4 µM (inactive)	21.5 µM (inactive)	17.5 µM (inactive)	17.2 µM (inactive)	21.6 µM (inactive)	19.1 µM (inactive)	18.7 µM (inactive)	21.3 µM (inactive)	20.9 µM (inactive)	21.2 µM (inactive)	16 µM (inactive)
